Source: patent US8362070B2, “Application of puerarin in the preparation of P2X3 mediated drugs for pain/nervous system diseases” (Nanchang University, priority 2009, dated 2013)

Experiments:
P2X3 receptor [1] = biological target: T1, P2X3 receptor (Rattus norvegicus, UniProt P49654); assay: Whole-cell patch clamp of ATP or α,β-meATP activated current in DRG neurons of CCI rats; assay type: cell-based; conditions: for DRG neurons sensitive to exogenous ATP: ATP 1-1000 μmol/L; for α,β-meATP-activated electric current in DRG neurons: α,β-meATP 10 μmol/L
T1 construct: The method for neuron sample isolated from DRG of rats was briefly described as below; endogenous in cells; host or cells: acutely dissociated L4/L5 DRG neurons of SD rats
T1 sequence (P49654 1-397): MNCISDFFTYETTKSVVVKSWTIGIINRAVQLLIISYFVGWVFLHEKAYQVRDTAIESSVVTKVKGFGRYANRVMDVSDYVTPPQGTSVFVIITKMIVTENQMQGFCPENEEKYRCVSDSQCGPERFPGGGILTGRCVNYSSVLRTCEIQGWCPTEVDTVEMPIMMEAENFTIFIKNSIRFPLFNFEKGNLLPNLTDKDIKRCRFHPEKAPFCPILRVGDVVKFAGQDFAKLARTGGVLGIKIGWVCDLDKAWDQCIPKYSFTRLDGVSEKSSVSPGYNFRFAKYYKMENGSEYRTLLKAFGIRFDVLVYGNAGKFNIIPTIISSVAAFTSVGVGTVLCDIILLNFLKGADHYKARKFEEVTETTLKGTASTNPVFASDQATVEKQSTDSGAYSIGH
Text: The method for neuron sample isolated from DRG of rats was briefly described as below: the rats were knocked down and their skin in the back was cut open rapidly after decollation. The ribs that were connected to the spinal column at both sides were cut apart and the thoracolumbar spine was taken out and cut in half through the middle of the spine. The samples were kept in O2 saturated DMEM solution (Dubecco's Modified Eagle's medium), pH 7.40, and the osmotic pressure of this solution was 340 mOsm/kg. The sections L4 and L5 of nerve ganglion and connected nerve roots (dorsal nerve roots and ventral roots) as well as the spinal nerves were taken out inside the open vertebral canal, the connected nerves and adjacent connective tissue capsule were carefully removed by using fine corneal scissors and hairspring tweezer under an anatomical microscope, and the cleaned DRG should be cut into small pieces as far as possible and transferred to a culture flask, trypsin (type III, sigma) 0.5 g/L and collagenase (type IA, sigma) 1.0 g/L was then added, and the culture flask was incubated in a constant temperature shaking water bath (35 °C, 80 times/min) for 20-30 minutes, then proper amount of Soya beam trypsin inhibitor (type […]-s, Sigma) was added to stop the enzymatic digestion. The DRG cells after the above mentioned enzymatic and mechanical isolation were transferred to 35 mm culture dishes, and then they were kept still on the object stage of an inverted microscope for solution change for 30 minutes, subsequently the whole-cell patch clamp technique was utilized to record the effects of puerarin on ATP or α,β-meATP activated electric current. • (1) Carefully examining the connection and original setting of equipments in the experimental system. • (2) Turning on the power switch. • (3) Electrode installation: connecting the reference electrode, filling the glass electrode and then installing it on the electrode clamp holder. Notice: the electrode should not be over-filled; contacting the shielding can with hands before installing the electrodes in order to release the static electricity on the body. • (4) Phase boundary potential compensation and electrode resistance determination: filling solution in the microelectrode under the “searching” mode, adjusting the phase boundary potential compensation and measuring electrode resistance according to the responsive amplitude of electric current that was induced by pulsed voltage square wave. • (5) Cell sealing: adjusting the micro-operator to get the tip of the microelectrode close to the surface of the cell and a negative pressure is produced in the micro-electrode and thus the Giga-Ohm seal was formed. • (6) Rapid electric capacity compensation: adjusting the rapid electric capacity compensation and making the output signal free of ingredients of rapid electric capacitive current. • (7) Absorbing the cell membrane until it was disrupted: the working mode was switched to “forcipressure”. The membrane was absorbed until it was disrupted after the high resistance sealing was formed between the electrode and the cell (1-10 GΩ). The holding potential (H.P) was kept at −60 mV, and low pass membrane current was used (1 kHz, −3 dB). • (8) Slow capacitive compensation: adjusting the slow capacitive compensation and making the output signal free of ingredients of slow electric capacitive current. Tandem resistance compensation: adjusting the tandem resistance compensation until no shock was produced. The equipment for record of patch clamp was CEZ-2400 type patch clamp amplifier (Nihon-Kohden, Japan). The membrane was further absorbed until it was disrupted after the high resistance formed between the electrode and the cell membrane (1˜10 GΩ), and the capacitance and the tandem resistance compensation were adjusted. The holding potential (HP) was kept at −60 mV, low pass membrane current was used (1 kHz, −3 dB). The experimental results were traced by using the two-way recorder (LMS-2B, Chengdu). […]

P2X3 mRNA = assay: In situ hybridization of P2X3 mRNA in dorsal root ganglion of burn rats; assay type: in vivo, rat; conditions: n=10
Method: SD rats (their body weights were 200±20 g) were randomly divided into the group I (sham back burn), the group II (Puerarin, intraperitoneal injection), the group III (superficial second degree back burn), the group IV (superficial second degree back burn+puerarin), the group V (control) and the group VI (superficial second degree back burn+Indocin). The rats in the group IV (superficial second degree back burn+puerarin) were subjected to intraperitoneal injection of Puerarin (100 mg/kg) everyday for continuous three days 30 minutes before and after burn. The rats in the group VI (superficial second degree back burn+Indocin) were subjected to intraperitoneal injection of idomethine (4 mg/kg/d) everyday for continuous three days 30 minutes before burn and after burn. Results of in situ hybridization were subjected to analysis by using Hmias-2000 high-resolution color medical image analysis system for the detection of P2X3 receptor expression in dorsal root ganglion (DRG) in burn position of rats.

P2X3 receptor mRNA = assay: In situ hybridization of P2X3 receptor mRNA in dorsal root ganglion of CCI rats; assay type: in vivo, rat; conditions: L4/L5 DRG
P2X3 protein = P2X3 protein expression in dorsal root ganglion of burn rats (band density normalized to β-actin); assay type: in vivo, rat; conditions: n=3
Method: SD rats (their body weights were between 200±20 g) were randomly divided into the group I (sham back burn), the group II (Puerarin, intraperitoneal injection), the group III (superficial second degree back burn), the group IV (superficial second degree back burn+puerarin), the group V (control) and the group VI (superficial second degree back burn+Indocin). The rats in the group IV (superficial second degree back burn+puerarin) were subjected to intraperitoneal injection of puerarin (100 mg/kg) everyday for continuous three days 30 minutes before burn and after burn. The rats in the group VI (superficial second degree back burn+Indocin) were subjected to intraperitoneal injection of idomethine (4 mg/kg/d) everyday for continuous three days 30 minutes before burn and after burn. Results: the optical density scanned values for the interested bands that were detected on X-ray film were read by using Alpha Imager 2200 image analysis software, and the scanned values of β-actin for different groups were used to normalize the expression level of P2X3 in corresponding groups.

P2X3 receptor [2] = assay: Immunohistochemistry of P2X3 receptor expression in dorsal root ganglion of CCI rats; assay type: in vivo, rat; conditions: L4/L5 DRG
[3] = superficial second degree back burn + drug (puerarin 100 mg/kg i.p., idomethine 4 mg/kg/d i.p., three days), burn 1.15±0.04, control 0.99±0.02
[4] = CCI rats + drug, 14 days after operation, CCI 1.33±0.02, control 0.82±0.02
[5] = superficial second degree back burn + drug (puerarin 100 mg/kg i.p., idomethine 4 mg/kg/d i.p., three days), burn 1.23±0.06, control 0.98±0.02
[6] = CCI rats + drug, 14 days after operation, CCI 1.64±0.05, control 1.15±0.03
[7] = puerarin alone, no CCI, 14 days

ATP-activated electric current in DRG neurons in comparison to CCI group (P2X3 receptor [1]; CCI rats + Indocin, p<0.05)	DRG neurons sensitive to exogenous ATP (P2X3 receptor [1]; CCI rats + drug)	α,β-meATP-activated electric current in DRG neurons (P2X3 receptor [1]; CCI rats + drug)	ATP-activated electric current in DRG neurons in comparison to the idomethine treatment group (P2X3 receptor [1]; CCI rats + puerarin, p<0.05)	ATP-activated electric current in DRG neurons, difference from groups I, II and V (P2X3 receptor [1]; CCI rats + puerarin, p>0.05)	DRG neurons sensitive to exogenous ATP (P2X3 receptor [1]; puerarin alone, no CCI)	α,β-meATP-activated electric current in DRG neurons (P2X3 receptor [1]; puerarin alone, no CCI)	SMILES	average optical density (P2X3 mRNA, in situ hybridization, DRG) (P2X3 mRNA; [3])	average optical density of P2X3 positive neurons (P2X3 receptor mRNA, in situ hybridization) (P2X3 receptor mRNA; [4])	protein expression level of P2X3 (after normalization with corresponding β-actin) (P2X3 protein; [5])	average optical density of P2X3 positive neurons (P2X3 receptor, immunohistochemistry) (P2X3 receptor [2]; [6])	average optical density (P2X3 mRNA, in situ hybridization, DRG) (P2X3 mRNA; puerarin alone i.p., no burn)	average optical density of P2X3 positive neurons (P2X3 receptor mRNA, in situ hybridization) (P2X3 receptor mRNA; [7])	protein expression level of P2X3 (after normalization with corresponding β-actin) (P2X3 protein; puerarin alone i.p., no burn)	average optical density of P2X3 positive neurons (P2X3 receptor, immunohistochemistry) (P2X3 receptor [2]; [7])
decreased	89.7%	extremely low inward current	–	–	–	–	COc1ccc2c(c1)c(CC(=O)O)c(C)n2C(=O)c1ccc(Cl)cc1 [Indocin, Indometacin]	1.06±0.05	1.14±0.01	1.14±0.03	1.34±0.04	–	–	–	–
–	87.5%	extremely low inward current	lower	not significant	89.2%	extremely low inward current	O=c1c(-c2ccc(O)cc2)coc2c([C@@H]3O[C@H](CO)[C@@H](O)[C@H](O)[C@H]3O)c(O)ccc12 [puerarin]	1.01±0.03	0.98±0.05	0.93±0.02	1.28±0.04	0.97±0.01	0.82±0.03	0.97±0.02	1.07±0.03
